Values joined by “and” are separate entries in the source; they are usually repeats but may differ in a detail not shown here. Equal values may be shown once.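 Five compound concentrations were applied to cells in 96-well plates for 48 hours; endpoints were derived by simple linear interpolation of the resulting dose-response curve. Abbreviation: GI50, concentration required for 50% inhibition of growth. At the TGI there is no net growth.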

Among the test systems are HCT-116 colon; HL-60(TB) leukemia; HOP-92 NSCLC; KM12 colon; LOX IMVI melanoma; MCF7 breast; NCI-H522 lung; RXF 393 renal; SR leukemia; SK-MEL-28 melanoma.
What all share (experiment): growth of human tumour cells (NCI), 48 h

With `Cc1coc2c1CC1(C)C(CCC(O)C1C)C2` (centres undefined), the TGI in the test on HCT-116 colon, in the test on HL-60(TB) leukemia, with HOP-92 NSCLC, in the test on KM12 colon, with LOX IMVI melanoma and in the test on MCF7 breast was above 100 µM throughout. Further, the TGI in the test on NCI-H522 lung, in the test with RXF 393 renal and with SR leukemia was above 100 µM throughout.

Take `O=CN/C=C/c1cc(O)ccc1O`: the TGI in the test on HCT-116 colon was 29.2 µM; in the test on HL-60(TB) leukemia it was 13.2 µM; in the test on HOP-92 NSCLC, 25.6 µM; in the test with KM12 colon, above 100 µM; with LOX IMVI melanoma, 28.1 µM; in the test with MCF7 breast it was 30.2 µM. Besides, the TGI with NCI-H522 lung was 11.2 µM; in the test on RXF 393 renal, 26.3 µM; in the test with SK-MEL-28 melanoma it was above 78.5 µM; in the test with SR leukemia it was 48.2 µM.

As for `O=S(=O)(NC1=NCCN1C(=S)SN1CCn2c1nsc2=S)c1ccc(OC(F)(F)F)cc1`, the GI50 in the test with HCT-116 colon is 6.15 µM; in the test with HL-60(TB) leukemia it was 2.88 µM; in the test on HOP-92 NSCLC, 25.1 µM; in the test on KM12 colon it was 8.11 µM; in the test on LOX IMVI melanoma it was 8.6 µM; in the test on MCF7 breast it was 4.52 µM. Further, the GI50 in the test with NCI-H522 lung was 2.92 µM; in the test with RXF 393 renal, 2.77 µM; in the test with SK-MEL-28 melanoma, 22.7 µM; in the test on SR leukemia, 1.74 µM. Moreover, the TGI turned out to be 22.3 µM in the test with HCT-116 colon; 7.35 µM in the test with HL-60(TB) leukemia; 44.1 µM in the test with HOP-92 NSCLC; 22.8 µM with KM12 colon; 22.9 µM in the test on LOX IMVI melanoma; 25.2 µM in the test on MCF7 breast. Also, the TGI in the test with NCI-H522 lung turned out to be 9.8 µM; with RXF 393 renal it was 8.1 µM; with SK-MEL-28 melanoma it was 64 µM; in the test on SR leukemia, 5.76 µM.

With `c1ccc2cc(-c3cc(-c4cc(-c5ccc6ccccc6c5)on4)no3)ccc2c1`, the TGI with HCT-116 colon, in the test with HL-60(TB) leukemia, in the test with HOP-92 NSCLC, with KM12 colon, with LOX IMVI melanoma and in the test on MCF7 breast was above 100 µM throughout. Also, the TGI with NCI-H522 lung, with RXF 393 renal, in the test with SK-MEL-28 melanoma and in the test on SR leukemia was above 100 µM in each case.

In the case of `CC[C@@]1(O)C[C@H](OC2CC(N(C)C)C(O)C(C)O2)c2c(O)c3c(c(O)c2[C@H]1OC1CC(N(C)C)C(O)C(C)O1)C(=O)c1cccc(O)c1C3=O` (some centres undefined), the GI50 with HCT-116 colon was below 0.01 µM; in the test on HL-60(TB) leukemia it was 0.0102 µM; in the test with HOP-92 NSCLC it was below 0.01 µM; in the test with KM12 colon it was below 0.01 µM; in the test on MCF7 breast, below 0.01 µM; in the test on NCI-H522 lung, below 0.01 µM. Also, the GI50 with RXF 393 renal, in the test on SK-MEL-28 melanoma and in the test with SR leukemia was below 0.01 µM each time. Besides, the TGI with LOX IMVI melanoma was 0.0923 µM; in the test on MCF7 breast it was 0.381 µM and 0.0743 µM; with NCI-H522 lung, 0.0857 µM and < 0.01 µM; with RXF 393 renal, 0.0643 µM and < 0.01 µM; in the test with SK-MEL-28 melanoma it was 0.135 µM and 0.0405 µM; in the test on SR leukemia, 0.0273 µM.

With `COC1CCC(N2C(=O)CNc3ncc(-c4ccc(C(C)(C)O)nc4)nc32)CC1` (centres undefined), the GI50 with HCT-116 colon was 2.07 µM and 0.809 µM; in the test with HL-60(TB) leukemia, 2.88 µM and 1.09 µM; in the test with HOP-92 NSCLC it was 0.129 µM and 0.0247 µM; in the test on KM12 colon, 1.2 µM and 0.302 µM; with LOX IMVI melanoma, 1.35 µM and 0.329 µM; in the test with MCF7 breast it was 0.305 µM and 0.127 µM. The GI50 in the test on NCI-H522 lung was 0.322 µM and 0.0656 µM; with RXF 393 renal, 0.373 µM and 0.187 µM; with SK-MEL-28 melanoma it was 0.378 µM and 0.155 µM; with SR leukemia, 1.06 µM and 0.331 µM. For the same molecule, the TGI with HCT-116 colon is > 10 µM and 13.8 µM; with HL-60(TB) leukemia, > 10 µM and 30.8 µM; in the test on HOP-92 NSCLC, 0.934 µM and 0.389 µM; in the test on KM12 colon it was above 40.8 µM; in the test with LOX IMVI melanoma, above 34.2 µM; with MCF7 breast, > 10 µM and 12.6 µM. The TGI in the test on NCI-H522 lung is 2.63 µM; in the test with RXF 393 renal it was 3.66 µM and 2.32 µM; with SK-MEL-28 melanoma, 4.1 µM and 10.4 µM; with SR leukemia it was above 47.2 µM.

Consider `O=C(Nc1ccc(Cl)c(Cl)c1)Nc1ccc(Cl)c(Cl)c1`, for which the GI50 with HCT-116 colon was 2.85 µM and 2.1 µM; in the test on HL-60(TB) leukemia, 2.58 µM and 2.16 µM; with HOP-92 NSCLC, 2.19 µM and 1.23 µM; in the test with KM12 colon, 3.04 µM and 2.52 µM; in the test with LOX IMVI melanoma, 2.26 µM and 2.95 µM; with MCF7 breast, 2.61 µM and 2.78 µM. Besides, the GI50 in the test on NCI-H522 lung was 1.68 µM and 1.25 µM; in the test with RXF 393 renal, 2.81 µM and 2.57 µM; in the test on SK-MEL-28 melanoma, 3.24 µM and 4.13 µM; with SR leukemia it was 2.7 µM and 2.26 µM. Further, the TGI is 11 µM and 7.41 µM in the test on HCT-116 colon; 7.24 µM and 6.68 µM in the test on HL-60(TB) leukemia; 5.81 µM and 4.47 µM in the test on HOP-92 NSCLC; 11.6 µM and 6.99 µM in the test on KM12 colon; 4.94 µM and 10.3 µM in the test on LOX IMVI melanoma; 12 µM and 11.6 µM with MCF7 breast. In addition, the TGI was 5.67 µM and 3.03 µM in the test with NCI-H522 lung; 11.6 µM and 6.57 µM in the test with RXF 393 renal; 14.2 µM and > 100 µM with SK-MEL-28 melanoma; 10.9 µM and 6.66 µM in the test on SR leukemia.

As to `NC(=O)c1cccc2cn(-c3ccc([C@@H]4CCCNC4)cc3)nc12`, the GI50 in the test with HCT-116 colon was 10.8 µM; in the test on HL-60(TB) leukemia, 15.7 µM; in the test on HOP-92 NSCLC, 21.5 µM; with KM12 colon, 15.7 µM; in the test with LOX IMVI melanoma, 8.16 µM; in the test on MCF7 breast, 6.59 µM. The GI50 with NCI-H522 lung was 20.4 µM; with RXF 393 renal, 13.5 µM; with SK-MEL-28 melanoma, 16.3 µM; in the test with SR leukemia, 1.94 µM. Further, the TGI in the test on HCT-116 colon amounted to 25.1 µM; in the test with HL-60(TB) leukemia, 34.6 µM; in the test with HOP-92 NSCLC, 89.9 µM; in the test with KM12 colon it was 30.6 µM; with LOX IMVI melanoma it was 22.2 µM; in the test with MCF7 breast, 23.9 µM. For the same molecule, the TGI was found to be 55.6 µM in the test with NCI-H522 lung, 27.1 µM with RXF 393 renal, 30.7 µM in the test on SK-MEL-28 melanoma and 12.5 µM in the test with SR leukemia.

Consider `Cn1cnc([N+](=O)[O-])c1Sc1nnc(-c2cccnc2)n1C`, for which the TGI was 40.1 µM in the test on HCT-116 colon; 21.1 µM in the test on HL-60(TB) leukemia; 30.6 µM in the test with HOP-92 NSCLC; above 100 µM in the test on KM12 colon; 34.9 µM in the test with LOX IMVI melanoma; 46.8 µM in the test on MCF7 breast. Also, the TGI with NCI-H522 lung was determined as 15.2 µM; in the test with RXF 393 renal it was 23.9 µM; in the test on SK-MEL-28 melanoma it was 35.6 µM; in the test on SR leukemia, 45.5 µM.

Consider `O=C1CC(c2ccc3c(c2)OCO3)Nc2ccccc21` (centres undefined), for which the GI50 in the test on HCT-116 colon is 10.2 µM; in the test with HL-60(TB) leukemia, 3.16 µM; in the test on HOP-92 NSCLC it was 4.96 µM; in the test on KM12 colon it was 5.36 µM; with LOX IMVI melanoma, 5.91 µM; in the test on MCF7 breast, 4.96 µM. The GI50 is 12.9 µM in the test with NCI-H522 lung, 11.7 µM in the test on RXF 393 renal, 15.1 µM in the test with SK-MEL-28 melanoma and 4.56 µM in the test with SR leukemia. For the same molecule, the TGI is 23.9 µM in the test with HCT-116 colon; above 100 µM in the test on HL-60(TB) leukemia; 32.3 µM in the test on HOP-92 NSCLC; 20.8 µM with KM12 colon; 20.5 µM in the test with LOX IMVI melanoma; 36.7 µM with MCF7 breast. The TGI is 38.8 µM in the test on NCI-H522 lung, 28.3 µM with RXF 393 renal, 32.7 µM in the test on SK-MEL-28 melanoma and above 100 µM with SR leukemia.

For the origin of these results see PubChem BioAssay (NCI).
